Data on 18 compounds can be found in patent US20060063759A1, “Tricyclic steroid hormone nuclear receptor modulators” (priority 2002, published 2006).

Structures are written as SMILES.

The target in one series is T1, glucocorticoid receptor (Homo sapiens, UniProt P04150).
T1 construct: containing 50-200 ug of A549 cell extract and 1.86 nM [^3H]-dexamethasone; host or cells: A549 human lung epithelial cells (sonicated cell extract)
T1 sequence (P04150 1-777): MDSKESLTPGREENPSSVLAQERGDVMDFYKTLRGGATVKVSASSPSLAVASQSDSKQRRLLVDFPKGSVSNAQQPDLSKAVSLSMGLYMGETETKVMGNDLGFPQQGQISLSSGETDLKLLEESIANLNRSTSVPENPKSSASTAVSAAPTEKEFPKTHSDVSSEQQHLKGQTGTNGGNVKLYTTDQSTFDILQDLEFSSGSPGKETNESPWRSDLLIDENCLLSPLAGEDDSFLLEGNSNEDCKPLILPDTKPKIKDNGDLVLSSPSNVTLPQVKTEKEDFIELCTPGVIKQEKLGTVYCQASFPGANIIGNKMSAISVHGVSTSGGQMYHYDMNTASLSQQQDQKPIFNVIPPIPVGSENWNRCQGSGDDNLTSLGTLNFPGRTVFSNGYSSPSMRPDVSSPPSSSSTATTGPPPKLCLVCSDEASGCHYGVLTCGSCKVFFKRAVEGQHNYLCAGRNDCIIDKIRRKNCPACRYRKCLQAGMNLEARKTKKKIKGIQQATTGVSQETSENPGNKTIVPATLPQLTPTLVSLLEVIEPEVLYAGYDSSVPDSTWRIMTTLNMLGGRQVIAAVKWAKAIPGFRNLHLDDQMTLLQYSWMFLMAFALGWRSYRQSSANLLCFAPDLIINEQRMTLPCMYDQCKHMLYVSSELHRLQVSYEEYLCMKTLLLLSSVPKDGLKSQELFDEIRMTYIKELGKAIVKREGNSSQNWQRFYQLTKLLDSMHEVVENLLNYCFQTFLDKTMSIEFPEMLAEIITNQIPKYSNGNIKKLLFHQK
As to the kind of experiment: Glucocorticoid Receptor Binding Assay ([3H]-dexamethasone, A549 cell extract). As to conditions: [3H]-dexamethasone binding, read-out: GR Ki. In a few lines: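 A549 cell extract (50–200 ug) incubated with 1.86 nM [3H]-dexamethasone and test compound for 16 h at 4 °C in Tris-HCl pH 7.2 buffer with glycerol and molybdate. Unbound radioligand removed by dextran-coated charcoal, then supernatant bound counts measured by scintillation.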

The next series deals with T2, human MR (Homo sapiens, UniProt P08235).
T2 construct: The full length human MR gene is cloned from a human kidney or human brain cDNA library; His tag from the pAcHLT vector (own knowledge); made in house; host or cells: Sf9 insect cells (baculovirus, pAcHLT transfer vector)
T2 sequence (P08235 1-984): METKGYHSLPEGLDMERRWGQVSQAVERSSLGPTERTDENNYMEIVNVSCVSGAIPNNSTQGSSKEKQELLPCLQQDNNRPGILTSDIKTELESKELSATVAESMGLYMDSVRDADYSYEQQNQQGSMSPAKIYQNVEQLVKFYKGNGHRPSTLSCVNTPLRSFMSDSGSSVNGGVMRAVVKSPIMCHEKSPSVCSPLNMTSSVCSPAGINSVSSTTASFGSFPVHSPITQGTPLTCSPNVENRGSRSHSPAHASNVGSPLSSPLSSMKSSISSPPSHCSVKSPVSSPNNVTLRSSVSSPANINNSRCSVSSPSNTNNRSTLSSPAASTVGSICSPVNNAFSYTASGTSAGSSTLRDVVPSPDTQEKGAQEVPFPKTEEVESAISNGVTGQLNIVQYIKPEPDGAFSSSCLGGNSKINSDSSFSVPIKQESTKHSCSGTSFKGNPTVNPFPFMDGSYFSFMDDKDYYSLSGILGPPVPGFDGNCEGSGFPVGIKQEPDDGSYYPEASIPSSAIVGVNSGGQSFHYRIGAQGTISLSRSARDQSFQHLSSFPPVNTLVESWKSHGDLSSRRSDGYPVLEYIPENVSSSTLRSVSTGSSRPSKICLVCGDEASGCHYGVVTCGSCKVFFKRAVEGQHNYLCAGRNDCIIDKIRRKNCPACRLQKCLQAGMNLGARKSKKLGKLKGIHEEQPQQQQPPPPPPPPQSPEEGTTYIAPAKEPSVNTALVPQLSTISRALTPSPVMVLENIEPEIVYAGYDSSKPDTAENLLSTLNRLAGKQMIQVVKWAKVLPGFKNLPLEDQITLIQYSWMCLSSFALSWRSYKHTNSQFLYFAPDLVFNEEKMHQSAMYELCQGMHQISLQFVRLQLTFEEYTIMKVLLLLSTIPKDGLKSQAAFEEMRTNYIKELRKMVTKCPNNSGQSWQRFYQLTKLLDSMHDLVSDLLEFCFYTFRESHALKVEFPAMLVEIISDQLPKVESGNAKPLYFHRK
As to the kind of experiment: Mineralocorticoid Receptor Binding Assay ([3H]-aldosterone). As to conditions: [3H]-aldosterone binding, human MR expressed in Sf9 cells; read-out: MR Ki. In a few lines:
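Lysate supernatant of Sf9 cells expressing full-length human MR (20-25 μg protein) was incubated with 0.5 nM [3H]-aldosterone and test compound in molybdate/Tris/phosphate/glycerol buffer, pH 7.5, ~16 h at 4 °C. Bound ligand was filtered and counted by scintillation; IC50 is the concentration halving [3H]-aldosterone binding.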

For series [1] the following is noted: in combination with standard CHF therapy, patients suffering from advanced CHF; cited from earlier work.

Consider `CCS(=O)(=O)Nc1cccc(C=C2c3ccccc3CCc3ccccc32)c1` [Example 91, Ethanesulfonic acid [3-(10,11-hydro-dibenzo[a,d]cyclohepten-5-ylidenemethyl)-phenyl]-amide], for which the melting point (usually the temperature, or range, at which the solid turns liquid) came out at 180.2 °C. Besides, the Ki (commonly the dissociation constant of the complex between target and ligand, obtained from inhibition or displacement) on glucocorticoid receptor is less than 0.5 µM. Besides, the Ki at human MR was less than 0.5 µM.

With `CC(C)S(=O)(=O)Nc1cccc(C=C2c3ccccc3CCc3ccccc32)c1` [Example 92, Propane-2-sulfonic acid [3-(10,11-dihydro-dibenzo[a,d]cyclohepten-5-ylidenemethyl)-phenyl]-amide], the melting point worked out at 187.7 °C. Moreover, at glucocorticoid receptor, the Ki was less than 0.5 µM. For the same compound, the Ki at human MR was less than 0.5 µM.

`O=S(=O)(Nc1cccc(C=C2c3ccccc3CCc3ccccc32)c1)c1ccccc1` [Example 93, N-[3-(10,11-Dihydrodibenzo[a,d]cyclohepten-5-ylidenemethyl)-phenyl]-benzenesulfonamide]: the melting point worked out at 121.9 °C. Moreover, the Ki at glucocorticoid receptor is less than 0.5 µM. Besides, the Ki at human MR was less than 0.5 µM.

For the compound `Cc1noc(C)c1S(=O)(=O)Nc1cccc(C=C2c3ccccc3CCc3ccccc32)c1` [Example 94, 3,5-Dimethyl-isoxazole-4-sulfonic acid [3-(10,11-dihydro-dibenzo[a,d]cyclohepten-5-ylidenemethyl)-phenyl]-amide], the melting point is 149.3 °C. For the same compound, on glucocorticoid receptor, the Ki is less than 0.5 µM. The Ki on human MR is less than 0.5 µM.

Compound `Cn1cnc(S(=O)(=O)Nc2cccc(C=C3c4ccccc4CCc4ccccc43)c2)c1` [Example 95, 1-Methyl-1H-imidazole-4-sulfonic acid [3-(10,11-dihydro-dibenzo[a,d]cyclohepten-5-ylidenemethyl)-phenyl]-amide] had a melting point of 257 °C. Further, the Ki at glucocorticoid receptor was less than 1 µM. The Ki on human MR was less than 0.5 µM.

For `CS(=O)(=O)Nc1ccc(C=C2c3ccccc3CCc3ccccc32)cc1` [Example 99, N-[4-(10,11-Dihydro-dibenzo[a,d]cyclohepten-5-ylidenemethyl)-phenyl]-methanesulfonamide], the melting point worked out at 210.7 °C. At glucocorticoid receptor, the Ki is less than 1 µM. Moreover, at human MR, the Ki was less than 0.5 µM.

As for `CC(=O)Nc1ccc(C=C2c3ccccc3CCc3ccccc32)cc1` [Example 116, N-[4-(10,11-Dihydro-dibenzo[a,d]cyclohepten-5-ylidenemethyl)-phenyl]-acetamide], the melting point was found to be 134.8 °C. Also, the Ki on glucocorticoid receptor is less than 0.5 µM. Further, the Ki on human MR is less than 0.5 µM.

Compound `O=C(Nc1ccc(C=C2c3ccccc3CCc3ccccc32)cc1)c1ccncc1` [Example 117, N-[4-(10,11-Dihydro-dibenzo[a,d]cyclohepten-5-ylidenemethyl)-phenyl]-isonicotinamide] returned a melting point of 252.1 °C. Further, the Ki at glucocorticoid receptor is less than 0.5 µM. Moreover, the Ki at human MR was less than 0.5 µM.

Consider `Oc1cccc(CC2c3ccccc3CCc3ccccc32)c1` [Example 126, 3-(10,11-Dihydro-5H-dibenzo[a,d]cyclohepten-5-ylmethyl)-phenol], for which the melting point was 76.6 °C. Besides, the inhibition constant (Ki) at glucocorticoid receptor is less than 0.5 µM. Further, the Ki on human MR is less than 0.5 µM.

Turning to `Oc1cccc(C=C2c3ccccc3CCc3ccccc32)c1F` [Example 153, 3-(10,11-Dihydro-dibenzo[a,d]cyclohepten-5-ylidenemethyl)-2-fluoro-phenol], the melting point came to 143.2 °C. Further, the Ki at glucocorticoid receptor was less than 1 µM. On human MR, the Ki is less than 0.5 µM.

`CS(=O)(=O)Nc1cccc(C=C2c3ccc(Cl)cc3CCc3cc(Cl)ccc32)c1` [Example 182, N-[3-(2,8-Dichloro-10,11-dihydro-dibenzo[a,d]cyclohepten-5-ylidenemethyl)-phenyl]-methanesulfonamide] returned a melting point of 182.4 °C. Besides, the Ki on glucocorticoid receptor was less than 0.5 µM. At human MR, the Ki was less than 0.5 µM.

Turning to `COc1ccc2c(c1)CCc1cc(OC)ccc1C2=Cc1cccc(NS(C)(=O)=O)c1` [Example 191, N-[3-(2,8-Dimethoxy-10,11-dihydro-dibenzo[a,d]cyclohepten-5-ylidenemethyl)-phenyl]-methanesulfonamide], the melting point was determined as 109.6 °C. Besides, on glucocorticoid receptor, the Ki is less than 0.5 µM. Besides, the Ki at human MR was less than 0.5 µM.

In the case of `Oc1cccc(C=C2c3cccc(F)c3CCc3c(F)cccc32)c1` [Example 202, 3-(1,9-Difluoro-10,11-dihydro-dibenzo[a,d]cyclohepten-5-ylidenemethyl)-phenol], the melting point amounted to 129.5 °C. Besides, the Ki at glucocorticoid receptor was less than 1 µM. Besides, the Ki on human MR is less than 0.5 µM.

On to `Oc1cccc(/C=C2/c3ccc(Cl)cc3CCc3cccnc32)c1` [Example 244, 3-(8-Chloro-5,6-dihydro-benzo[5,6]cyclohepta[1,2-b]pyridin-11-ylidenemethyl)-phenol], for which the melting point was 221.2 °C. Besides, the Ki at glucocorticoid receptor was less than 10 µM. In addition, at human MR, the Ki is less than 0.5 µM.

As for `Oc1cccc(/C=C2\c3ccc(Cl)cc3CCc3cccnc32)c1` [Example 245, 3-(8-Chloro-5,6-dihydro-benzo[5,6]cyclohepta[1,2-b]pyridin-11-ylidenemethyl)-phenol], the melting point is greater than 250 °C. Moreover, the Ki at glucocorticoid receptor is less than 10 µM. Moreover, the Ki on human MR was less than 0.5 µM.

The compound `CS(=O)(=O)Nc1cccc(C=C2c3ccccc3C3C(c4ccccc42)C3(Cl)Cl)c1` (centres unmarked) [Example 259, N-[3-(8,8-Dichloro-4-ylidenemethyl-2,3,5,6-dibenzobicyclo[5.1.0]octane)-phenyl]-methanesulfonamide] gave a melting point of 199 to 201 °C. Besides, the inhibitory constant (Ki) on glucocorticoid receptor was less than 10 µM. Moreover, the Ki on human MR was less than 0.5 µM.

With `O=c1[nH]c2ccc(C=C3c4ccc(F)cc4CCc4cc(F)ccc43)cc2[nH]1` [Example 437, 5-(2,8-difluoro-10,11-dihydro-dibenzo[a,d]cyclohepten-5-ylidenemethyl)-1,3-dihydro-benzoimidazol-2-one], the melting point was found to be 257 °C. The Ki at glucocorticoid receptor was less than 1 µM. For the same compound, on human MR, the Ki was less than 0.5 µM.

Regarding `CC(=O)S[C@@H]1CC2=CC(=O)CC[C@]2(C)[C@H]2CC[C@@]3(C)[C@@H](CC[C@@]34CCC(=O)O4)[C@H]12` [spironolactone], in series [1], the “reduced cardiac related mortality” value is 30% and the “reduced frequency of hospitalization” value is listed as 35%.
